Experiments:
Assay type in all cases: functional
Settings in all cases: read-out: IZ
Lachnellula = experiment: Inhibition of DHN-melanin biosynthesis in Lachnellula sp. A32-89 assessed as pigment inhibition zone at 50 ug/disk by agar diffusion assay
Rhizomucor miehei = experiment: Antimicrobial activity against Mucor miehei at 50 ug/disk
Bacillus subtilis = experiment: Antimicrobial activity against Bacillus subtilis at 50 ug/disk

Row | SMILES | zone of inhibition at 50 µg/disc (Lachnellula) | zone of inhibition at 50 µg/disc (Rhizomucor miehei) | zone of inhibition at 50 µg/disc (Bacillus subtilis)
1 | CC1=CC2=C(CO1)C(=O)c1c(O)cc(O)cc1C2=O | 14 mm | – | –
2 | COc1cc(O)c2c(c1)C(=O)C1=C(COC(C)=C1)C2=O | 14 mm | – | –
3 | C/C=C/C1=CC2=CC(=O)[C@@]3(C)OC(=O)C(C(C)=O)=C3C2=CO1 [TRICHOFLECTIN] | 19 mm | 23 mm | 23 mm

— ChEMBL document CHEMBL1150870, “Trichoflectin, a bioactive azaphilone from the ascomycete Trichopezizella nidulus” (1998)
